Results from paper PMC8079714 (Nature Communications, 2021).
“And” between values parts separate entries of the source, which are not always exact repeats. Identical values can stand only once.

Test system: N. benthamiana leaves
Details: in vivo

Substance	sites showing a visible cell death response out of total infiltrated sites
TPGFHALVKPVRDEVIPAGKPYTLEWQPGG [MoSNP30rec]	1/10 and 3/30
DPIYTPNSGETIDAGAPYTVTW [SGP123-44rec]	10/10 and 30/30
NPDFNPVNKPTPNEKIPAGSTYKIEWTAPA [VdSNP30rec]	1/10 and 3/30
VADFDPVLTPTNWEEVSAGKTLEITWQAKP [FvSNP30rec]	0/10 and 0/30
TADFDPIFKPEAWQSVAAGQSFQITWDAPA [FsSNP30rec]	9/10 and 27/30
TAGFDAISVPTNGQVVKVGDVLDITWAPNA [SsSNP30rec]	9/10 and 10/10 and 28/30
TAGFDAISVPTNGQVVQVGDVLDITWAPNS [BcSNP30rec]	10/10 and 30/30
TPDFDPIYTPKKDEVVAAGSPLVITWDAPA [CpSNP30rec]	9/10 and 10/10 and 28/30
W44A (FDPIYTPNSGETIDAGAPYTVTA)	0/5 and 0/15
TAGFDAVLTPAKDEVVAAGSSYTITWDYSS [VmSNP30rec]	0/10 and 0/30
